# B1: huN901-DM1 conjugate (Sephadex G25): huN901 antibody conjugated in one step with maytansinoid 2, Sephadex G25 purified, average 2.08 DM1 per antibody (conjugate, chains of the INN, looked up)
# VH: QVQLVESGGGVVQPGRSLRLSCAASGFTFSSFGMHWVRQAPGKGLEWVAYISSGSFTIYYADSVKGRFTISRDNSKNTLYLQMNSLRAEDTAVYYCARMRKGYAMDYWGQGTLVTVSS
# VL: DVVMTQSPLSLPVTLGQPASISCRSSQIIIHSDGNTYLEWFQQRPGQSPRRLIYKVSNRFSGVPDRFSGSGSGTDFTLKISRVEAEDVGVYYCFQGSHVPHTFGQGTKVEIK
# modifications: DM1 maytansinoid conjugate
# notes: huN901 antibody conjugated in one step with maytansinoid 2, Sephadex G25 purified, average 2.08 DM1 per antibody
# B2: huN901: control unconjugated antibody whose antigen is NCAM/CD56 (antibody, chains of the INN, looked up, V domains shown)
# VH: B1 VH
# VL: B1 VL
# B3: huN901-DM1 conjugate (Sephacryl S300): huN901 antibody conjugated in one step with maytansinoid 2, Sephacryl S300 purified, average 1.61 DM1 per antibody (conjugate, chains of the INN, looked up)
# VH: B1 VH
# VL: B1 VL
# modifications: DM1 maytansinoid conjugate
# notes: huN901 antibody conjugated in one step with maytansinoid 2, Sephacryl S300 purified, average 1.61 DM1 per antibody
# What was measured:
# [1] = tested on: B-16 melanocarcinoma system; conditions: in vivo; cited from earlier work
# [2] = tested on: human nasopharyngeal carcinoma cells; conditions: cited from earlier work
# [3] = tested on: P388, L1210, and LY5178 murine leukemic cell suspensions; conditions: in vitro; P388 line the most sensitive; cited from earlier work
# [4] = tested on: P388 lymphocytic leukemia system; conditions: in vivo; suggested a high therapeutic index; cited from earlier work
# [5] = tested on: Lewis lung carcinoma system; conditions: in vivo; cited from earlier work
# [6] = tested on: L1210 mouse leukemia system; conditions: in vivo; cited from earlier work
# [7] = more cytotoxic; cited from earlier work
# [8] = tested on: human acute lymphoblastic leukemia line CEM; conditions: in vitro; cited from earlier work
# [9] = tested on: L1210 cells; conditions: L1210 cells treated in vivo; untreated control mitotic index 3.2 to 5.8%; cited from earlier work
# [10] = tested on: A431 cells constitutively expressing the antigen for huN901 (NCAM/CD56); test: in vitro cytotoxicity (colony formation) towards antigen-expressing cells; format: cell-based, human; conditions: 5 to 7 days incubation; for IC50: surviving fraction, FIG. 1, read-out: IC50 in killing antigen positive cells
# Procedure: The huN901-DM1 conjugates prepared by this new, one step method were evaluated for in vitro cytotoxicity towards antigen-expressing cells as follows. A clone of A431 cells constitutively expressing the antigen for huN901 (NCAM/CD56) were used in this assay. Cells were plated into 6-well tissue-culture treated plates at a density of 2×10^3 cells/well in 2 ml of DMEM medium supplemented with 10% fetal calf serum and penicillin+streptomycin. A huN901-DM1 conjugate or the control huN901 antibody was added to the wells at the time of plating, and the cultures were incubated in a tissue culture incubator at 37° C., 6% CO2, for 5 to 7 days to form colonies not smaller than 25 cells/colony. The plates were then washed with PBS, and then fixed/stained for 30 min at room temperature with 10% formaldehyde/0.2% (w/v) Crystal Violet in PBS. The wells were rinsed 3 times with water, dried by air, and the colonies were counted under a dissection low magnification microscope. The surviving fractions were calculated as the number of colonies in drug-treated well/number of colonies in non-treated well.
molecule,measurement,setting,value
COc1cc2cc(c1Cl)N(C)C(=O)C[C@H](OC(=O)[C@H](C)N(C)C(C)=O)[C@]1(C)O[C@H]1[C@H](C)[C@@H]1C[C@@](O)(NC(=O)O1)[C@H](OC)/C=C/C=C(\C)C2 [maytansine],inhibitory activity,[1],significant inhibitory activity
same,inhibition of in vitro growth,[2],active inhibitor
same,doses at which cell suspensions were inhibited,[3],10^−3 to 10^−1 μg/μl
same,dosage range over which tumor growth was inhibited,[4],50- to 100 fold
same,inhibitory activity,[5],significant inhibitory activity
same,inhibitory activity,[6],significant inhibitory activity
same,"cytotoxicity relative to conventional cancer chemotherapeutic agents like methotrexate, daunorubicin, and vincristine",[7],100 to 1000 fold
same,concentrations at which the line was inhibited,[8],≥ 10^−7 mg/ml
same,cells accumulating in mitosis,[9],67%
B1,IC50,[10],0.1 nM
B2,toxicity to antigen positive cells,[10]; FIG. 1,non-toxic
B3,IC50,[10],0.1 nM
